Four molecules from patent US20240132517A1, “MACROCYCLIC COMPOUND, PHARMACEUTICAL COMPOSITION, AND USE THEREOF” (GOHARMONY THERAPEUTICS (SHENZHEN) CO., LTD., priority 2021, published 2024) can be followed below.

In one series the target is c-Met (Homo sapiens (Human), UniProt P08581). The series is described as follows: Enzymatic inhibitory activity, mobility shift assay, c-Met. It is filed as biochemical. The settings on record: kinase mobility shift assay. From the text: (§1) Compounds against MET, SRC and CSF1R kinases were screened by use of mobility shift assay. The core of this screening platform was the MSA based on microfluidic chip technology, which applied the basic idea of capillary electrophoresis to a microfluidic environment. The substrate used in the experiment was a polypeptide with fluorescent labeling. Under the catalysis of the enzyme in the reaction system, the substrate was converted into a product, and it carried charge also changed accordingly. MSA utilized the difference in charge between the substrate and the product to separate them, and detect them separately.
Chain of c-Met (P08581 25-1390): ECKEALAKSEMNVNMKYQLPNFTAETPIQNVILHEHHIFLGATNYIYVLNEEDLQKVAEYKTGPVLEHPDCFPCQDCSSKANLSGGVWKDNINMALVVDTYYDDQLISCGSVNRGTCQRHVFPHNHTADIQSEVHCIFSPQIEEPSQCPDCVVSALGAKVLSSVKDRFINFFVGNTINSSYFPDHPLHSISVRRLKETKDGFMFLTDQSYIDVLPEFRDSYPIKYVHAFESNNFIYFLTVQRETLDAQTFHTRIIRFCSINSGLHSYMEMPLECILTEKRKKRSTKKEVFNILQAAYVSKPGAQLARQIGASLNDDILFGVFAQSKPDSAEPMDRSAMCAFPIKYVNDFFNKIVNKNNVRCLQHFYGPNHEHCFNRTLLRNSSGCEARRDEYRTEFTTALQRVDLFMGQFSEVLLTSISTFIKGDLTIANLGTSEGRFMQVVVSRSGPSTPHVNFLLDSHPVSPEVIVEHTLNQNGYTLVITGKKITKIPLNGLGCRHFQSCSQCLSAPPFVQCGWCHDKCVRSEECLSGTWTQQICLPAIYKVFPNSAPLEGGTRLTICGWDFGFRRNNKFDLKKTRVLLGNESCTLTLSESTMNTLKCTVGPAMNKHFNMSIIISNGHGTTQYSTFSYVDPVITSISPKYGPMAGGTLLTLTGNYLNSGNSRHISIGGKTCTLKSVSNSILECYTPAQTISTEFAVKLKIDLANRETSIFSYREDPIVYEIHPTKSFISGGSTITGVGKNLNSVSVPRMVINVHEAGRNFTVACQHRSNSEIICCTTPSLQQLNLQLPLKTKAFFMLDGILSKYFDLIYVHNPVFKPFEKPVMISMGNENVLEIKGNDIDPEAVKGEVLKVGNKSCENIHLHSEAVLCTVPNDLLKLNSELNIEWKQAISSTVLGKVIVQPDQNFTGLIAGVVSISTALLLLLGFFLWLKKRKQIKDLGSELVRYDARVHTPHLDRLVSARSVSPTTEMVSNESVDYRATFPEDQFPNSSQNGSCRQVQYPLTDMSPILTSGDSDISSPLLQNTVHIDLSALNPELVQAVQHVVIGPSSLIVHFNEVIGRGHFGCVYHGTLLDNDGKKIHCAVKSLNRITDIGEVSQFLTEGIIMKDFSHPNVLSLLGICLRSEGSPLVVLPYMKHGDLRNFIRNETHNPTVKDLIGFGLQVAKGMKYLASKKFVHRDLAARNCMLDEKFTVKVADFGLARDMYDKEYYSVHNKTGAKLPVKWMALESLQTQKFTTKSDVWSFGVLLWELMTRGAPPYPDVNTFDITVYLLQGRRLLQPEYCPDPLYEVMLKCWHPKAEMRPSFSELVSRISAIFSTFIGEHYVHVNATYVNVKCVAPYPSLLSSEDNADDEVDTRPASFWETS
(§2) The operation method is briefly described as follows:
(§3) The powders of the compound were dissolved in 100% DMSO to make a 10 mM stock solution. The initial test concentration of the compound was 10,000 nM, 3-fold serial dilution, 10 concentrations, and repeated hole detection. […] A stop detection solution was added to stop the enzymatic reaction, and the conversion rate was read with Caliper EZ Reader II.
(§4) wherein: Conversion%_sample is the conversion rate reading of the sample; Conversion%_min: the average value of the negative control wells, representing the conversion rate readings of the wells without enzyme activity; Conversion%_max: the average ratio of the positive control wells, representing the conversion rate readings of the wells without compound inhibition.
(§5) Dose-response curve fitting: with the log value of the concentration as the X-axis, and the percentage inhibition rate as the Y-axis, the log(inhibitor) vs. response-Variable slope of the analysis software GraphPad Prism 5 was used to fit the dose-response curve, thereby obtaining IC50 values of each compound against inhibition of enzyme activity.

The next series addresses SRC (Homo sapiens (Human), UniProt P12931). The series is described as follows: Enzymatic inhibitory activity, mobility shift assay, SRC. Conditions: read-out: SRC IC50; kinase mobility shift assay.
The target in the next series is CSF1R (Homo sapiens (Human), UniProt P07333). As to the kind of experiment: Enzymatic inhibitory activity, mobility shift assay, CSF1R. It is filed as biochemical. The settings on record: kinase mobility shift assay.
Chain of CSF1R (P07333 20-972): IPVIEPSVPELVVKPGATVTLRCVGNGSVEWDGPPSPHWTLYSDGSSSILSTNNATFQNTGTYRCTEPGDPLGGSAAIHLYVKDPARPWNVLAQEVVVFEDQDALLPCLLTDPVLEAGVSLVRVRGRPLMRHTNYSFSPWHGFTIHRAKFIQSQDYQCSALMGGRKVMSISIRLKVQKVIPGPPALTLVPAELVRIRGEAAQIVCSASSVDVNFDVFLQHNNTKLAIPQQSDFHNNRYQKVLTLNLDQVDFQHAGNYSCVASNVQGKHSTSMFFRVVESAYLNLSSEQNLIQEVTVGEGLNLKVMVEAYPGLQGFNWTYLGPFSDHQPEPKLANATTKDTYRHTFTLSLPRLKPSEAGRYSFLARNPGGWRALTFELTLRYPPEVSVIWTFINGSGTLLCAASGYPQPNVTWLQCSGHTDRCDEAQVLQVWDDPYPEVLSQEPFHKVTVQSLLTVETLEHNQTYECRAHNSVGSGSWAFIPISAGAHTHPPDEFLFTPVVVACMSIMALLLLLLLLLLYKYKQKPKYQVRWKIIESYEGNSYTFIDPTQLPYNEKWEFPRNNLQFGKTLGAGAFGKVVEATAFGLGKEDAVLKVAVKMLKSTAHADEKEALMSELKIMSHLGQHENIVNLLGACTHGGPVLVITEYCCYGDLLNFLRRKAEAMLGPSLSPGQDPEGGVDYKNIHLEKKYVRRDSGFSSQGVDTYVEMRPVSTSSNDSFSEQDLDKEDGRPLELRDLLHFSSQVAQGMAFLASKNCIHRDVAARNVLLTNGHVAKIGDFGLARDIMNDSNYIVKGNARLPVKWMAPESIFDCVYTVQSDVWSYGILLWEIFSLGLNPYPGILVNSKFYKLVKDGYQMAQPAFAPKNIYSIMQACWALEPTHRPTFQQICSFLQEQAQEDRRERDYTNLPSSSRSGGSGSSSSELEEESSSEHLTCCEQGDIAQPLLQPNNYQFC
Excerpt: as §1, §2, §3, §4, §5

Series [1] concerns HCC827 cells (MET overexpression). The series is described as follows: Synergistic killing of tumor cells with AZD9291, HCC827. It is filed as cell-based, human. The settings on record: 72 hours. How it is done:
(§6) Human lung cancer cells H1975 cells (L858R and T790M double mutations) and HCC827 cells were incubated in an incubator (37° C., 5% CO2) with 1640 medium plus 10% FBS (fetal bovine serum) and 1% P/S (penicillin/ streptomycin) for culture. In the assay of the compound, H1975 cells or HCC827 were plated in a 96-well plate (Corning) at a concentration of 3000 cells/195 μL per well, and the compound was serially diluted to 11 concentrations starting from 10 mM, and 4 μL of each concentration was added into 96 μL of 1640 cluture medium and diluted to form 25× compound, then 5 μL was took and added to 195 μL of cell culture medium (DMSO final concentration is 0.1%, v/v). After 72 hours of treatment, 35 μL of CellTiter-Blue® (purchased from Promega) was added. The fluorescent signal was measured on Flex Station3 (Molecular Devices) according to the operating procedure of the manual, and the IC50 value of inhibition on cell proliferation of the compound was calculated using GraphPad Prism5.0. The Chou-Talalay combination index method was used to calculate the effect of the combination. The combination index (Col) value 0.9≤CI≤1.1 is an additive effect, 0.8≤CI<0.9 is a low synergistic effect, 0.6≤CI<0.8 is a moderate synergistic effect, and 0.4 <CI<0.6 is highly synergistic, and 0.2≤CI<0.4 is strong synergistic.

Series [2] in a line: Pharmacokinetic experiments in rats. It is filed as in vivo. The settings on record: male SD rats, 1 mg/kg, oral gavage and intravenous injection. The protocol: Male SD rats were divided into groups, 3 rats in each group, and the compound of the Examples (1 mg/kg) was given by oral, single gavage and intravenous injection, respectively. The animals were fasted overnight before the experiments, and the fasting time was from 10 hours before administration to 4 hours after administration. Blood was collected at 0.25, 0.5, 1, 2, 4, 8 and 24 hours after administration in the oral group, and at 0.083, 0.25, 0.5, 1, 2, 4, 8 and 24 hours after injection in the intravenous injection group. After anesthesia with isoflurane using a small animal anesthesia machine, 0.3 mL of whole blood was collected through the fundus venous plexus and placed in a heparin anticoagulant tube. The sample was centrifuged at 4° C.and 4000 rpm for 5 minutes, the plasma was transferred to a centrifuge tube, and placed at […] and stored until analysis. Plasma samples were extracted by protein precipitation, and the extract was analyzed by LC/MS/MS.

In a further series the test system is Ba/F3-TEL-CSF1R. As to the kind of experiment: Cell viability assay against Ba/F3-TEL-CSF1R cells (CellTiter-Glo). It is filed as cell-based. Conditions: 72 hours, read-out: Baf3-TEL CSF1R IC50. How it is done: (§7) Starting from 200 μM, the compound was subjected to a 3-fold gradient with DMSO, and a total of 9 concentrations were diluted to prepare a 200-fold drug solution. 3 μl of the 200-fold concentration compound was diluted with 197 μl of complete medium to obtain a 3-fold concentration compound. 50 μl of the latter was took and added to the cell well plate, and culture was continued for 72 hours. The cell culture plate was equilibrated to room temperature before assay, and 40 μL of CellTiter-Glo (Promega, Cat# G7571) was added to each well, and the cells were lysed by shaking for two minutes. The cell plate was then left at room temperature for 60 minutes to stabilize the luminescence signal. Luminescence values were read using a PerkinElemer Envision multifunctional plate reader.
(§8) Data analysis: • Luminescence values were processed using the following formula:
(§9) %Inh=(Max signal−Compound signal)/(Max signal−Min signal)×100 • Max signal: value of a DMSO treatment group; • Min signal: value of a blank medium group.
(§10) The processed data were analyzed using GraphPad Prism 5.0 software, and nonlinear S-curve regression was used to fit the data to derive dose-response curves from which IC50 values were calculated.
(In general: ATP-based viability assays read luminescence as a measure of living cells.)

A short description of series [3]: Blood-brain distribution experiments in rats. It is filed as in vivo. Conditions: male SD rats. The protocol:
The male SD rats were divided into groups, 12 in each group, and the compound of the Examples (10 mg/kg) was administered orally or by gavage. The animals were fasted overnight before the experiments, and the fasting time was from 10 hours before administration to 4 hours after administration. According to the previous pharmacokinetic data, the rats in the Example 1 group were killed at 0.25, 0.5, 2 and 6 hours after administration; the rats in the TPX-0022 group were killed at 0.25, 1, 4 and 8 hours after administration, and blood and brain tissue were collected. After the samples were processed, they were centrifuged at 4° C., 4000 rpm for 5 min, and the plasma was transferred to a centrifuge tube and stored at −80° C.until analysis. Plasma samples were extracted by protein precipitation, and the extract was analyzed by LC/MS/MS.

Series [4] concerns H1975 cells (L858R and T790M double mutations). As to the kind of experiment: Synergistic killing of tumor cells with AZD9291, H1975. It is filed as cell-based, human. The settings on record: 72 hours. The protocol:
as §6

A further series has as its system HCC827 cells. As to the kind of experiment: Cell viability assay against HCC827 cells (CellTiter-Glo). It is filed as cell-based, human. The settings on record: 72 hours. How it is done:
Human non-small cell lung cancer cells, HCC827 cells, were cultured in an incubator (37° C., 5% CO2) with 1640 medium plus 10% FBS (fetal bovine serum) and 1% P/S (penicillin/streptomycin). In the assay of the compound, the HCC827 cells were plated in a 96-well transparent flat-bottomed black wall plate (Corning, Cat# 3603) at a concentration of 3000 cells/90 uL per well, and the compound was diluted 11 times in a 3-fold gradient starting from 10 mM, and prepared a 10-fold drug solution. Then 10 μL was taken and added to 90 μL of cell culture medium (DMSO final concentration was 0.1%, v/v). After 72 hours of treatment, 100 μL of CellTiter-Glo (Promega, Cat#G7572) was added, cells were lysed by shaking on an orbital shaker for 5 minutes. The cell plate was then left at room temperature for 20 minutes to stabilize the luminescence signal. Luminescence values were read with a SpectraMax Multilabel Microplate Reader (MD, 2104-0010A).
Data were analyzed using GraphPad Prism 5.0 software, and nonlinear S-curve regression was used to fit the data to derive dose-response curves from which IC50 values were calculated.
Cell Viability (%)=(Lumdrug to be tested−Lumculture medium control)/(Lumcell control−Lumculture medium control)×100%.

For another series, the system named is SNU-5 cells. The series is described as follows: Cell viability assay against SNU-5 cells (CellTiter-Glo). It is filed as cell-based. Conditions: Homo sapiens, 72 hours. How it is done:
Human gastric cancer cell line SNU-5 culture medium was IMDM basal culture medium supplemented with 10% FBS (fetal bovine serum) and 1% P/S (penicillin/streptomycin), Ba/F3-TEL-CSF1R stably transfected cell line medium was RPMI-1640 medium supplemented with 10% FBS and 1% P/S. Both cell lines were cultured in a carbon dioxide incubator at 37° C. with a CO2 concentration of 5%.
as §7, with “In the assay of compounds, SNU-5 and Ba/F3-TEL-CSF1R cells were plated in 96-well cell culture plates (Corning, Cat# 3610) at a concentration of 3000 cells/100 μL per well, and cultured overnight. Starting” for “Starting”
as §8, §9, §10

Each structure is given as a SMILES string.

Chain of SRC (P12931 whole entry, looked up): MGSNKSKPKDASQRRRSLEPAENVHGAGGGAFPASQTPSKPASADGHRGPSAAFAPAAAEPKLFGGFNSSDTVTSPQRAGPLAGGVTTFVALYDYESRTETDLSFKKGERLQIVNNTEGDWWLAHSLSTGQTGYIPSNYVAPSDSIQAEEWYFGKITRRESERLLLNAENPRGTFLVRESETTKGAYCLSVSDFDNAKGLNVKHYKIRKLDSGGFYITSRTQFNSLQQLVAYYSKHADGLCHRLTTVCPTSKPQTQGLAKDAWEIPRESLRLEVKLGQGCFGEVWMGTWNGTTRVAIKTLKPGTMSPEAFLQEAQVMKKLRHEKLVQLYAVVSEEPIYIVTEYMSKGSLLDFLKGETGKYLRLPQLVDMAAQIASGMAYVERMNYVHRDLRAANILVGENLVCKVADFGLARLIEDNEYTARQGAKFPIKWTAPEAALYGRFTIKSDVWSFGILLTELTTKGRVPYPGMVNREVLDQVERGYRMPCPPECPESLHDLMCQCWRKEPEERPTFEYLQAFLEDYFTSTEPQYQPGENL
Method for SRC: The powders of the compound were dissolved in 100% DMSO to make a 10 mM stock solution. […] A stop detection solution was added to stop the enzymatic reaction, and the conversion rate was read with Caliper EZ Reader II.

A word on the IC50: it is the midpoint of a concentration-inhibition curve. In the case of `C[C@H]1COC(=O)c2cnn3ccc(nc23)N[C@H](C)c2cc(F)ccc2O1` [Comparative Compound 42, reference compound], the IC50 at c-Met is 85 nM; on SRC it was 289 nM; on CSF1R it was > 10000 nM.
Take `CCN1Cc2c(ccc(F)c2C#N)O[C@@H](C)COC(=O)c2cnn3ccc1nc23` [Example 1, (S, 1^3E, 1^4E)-2-ethyl-45-fluoro-6-methyl-9-oxo-5,8-dioxa-2-aza-1(5,3)-pyrazolo[1,5-a]pyrimidine-4(1,2)-benzocyclononane-4^6-carbonitrile]: the “combination effect with AZD9291 (Chou-Talalay combination index)” value in series [1] and in [4] was “moderate to high synergistic effect” in each case. For the same molecule, the IC50 on c-Met was found to be 0.93 nM; at SRC it was 15 nM; with Ba/F3-TEL-CSF1R, 3.4 nM; on CSF1R, 0.42 nM; in the series on SNU-5 cells, 1.83 nM. Moreover, the pharmacokinetic properties result in series [2] is “better pharmacokinetic and pharmacokinetic properties”. Further, the Kp in series [3] (Sprague-Dawley (SD), rat, brain / plasma, oral, 10 mg/kg gavage, 0.25, 0.5, 2 and 6 hours, read-out: drug brain/blood distribution ratio) is 1.16 to 6.4. Further, the “entry into brain tissue” value in series [3] (10 mg/kg gavage) was “can enter the brain tissue”. Moreover, in the series with HCC827 cells, the “inhibitory effect on HCC827 cells” value was “very obvious inhibitory effect”.
For the molecule `CCN1Cc2c(ccc(F)c2C#N)O[C@@H](C)COC(=O)c2c(N)nn3ccc1nc23` [Example 2, (S, 1^3E, 1^4E)-1^2-amino-2-ethyl-4^5-fluoro-6-methyl-9-oxo-5,8-dioxa-2-aza-1(5,3)-pyrazolo[1,5-a]pyrimidine-4(1,2)-benzocyclononane-4^6 carbonitrile], the half-inhibitory concentration (IC50) was found to be 1.8 nM at c-Met; 30 nM at SRC; 7 nM with Ba/F3-TEL-CSF1R; 2.2 nM at CSF1R; 3.36 nM with SNU-5 cells. Moreover, the pharmacokinetic properties result in [2] is “better pharmacokinetic and pharmacokinetic properties”.
With `CCN1Cc2c(ccc(F)c2C#N)O[C@@H](C)CNC(=O)c2c(N)nn3ccc1nc23` [TPX-0022, reference compound], the IC50 is 7.5 nM on SRC and 6.26 nM with SNU-5 cells.
